According to patent US10202412B2, “β-D-2′-deoxy-2′-substituted-4′-substituted-2-substituted-N6-substituted-6-aminopurinenucleotides for the treatment of paramyxovirus and orthomyxovirus infections” (Atea Pharmaceuticals, Inc., priority 2016, dated 2019):
Where two headings read alike, the source gives them in different places.

Tests used:
Assay type in all cases: cell-based
[1] = tested on: respiratory syncytial virus A2 (ATCC VR-1540); assay: Cytopathic effect assay with RSV A2 in MA-104 cells; conditions: human respiratory syncytial virus, MA104, CPE inhibition, neutral red
Description: Test compounds were dissolved in DMSO and then prepared in eight half-log dilutions in MEM medium with 50 μg/mL gentamicin and 2% FBS (MA-104 cells only). Each dilution was added to 5 wells of a 96-well plate with 80-100% confluent cells (either MA-104 cells or HEp-2 cells). Three wells of each dilution were infected with respiratory syncytial virus A2 (ATCC VR-1540) and two wells remained uninfected as toxicity controls. After maximum cytopathic effect (CPE) was observed microscopically in untreated virus control wells, plates were stained with neutral red dye for approximately 2 hours, then supernatant dye was removed and the incorporated dye was extracted in 50:50 Sorensen citrate buffer/ethanol and read on a spectrophotometer. Optical density values were normalized based on cell and virus controls, then the concentration of test compound required to inhibit CPE by 50% (EC50) was calculated by regression analysis. The reported EC50 value is the mean of at least two experiments. The concentration of compound that caused 50% CPE in the absence of virus was similarly calculated to determine cytotoxicity (CC50).

[2] = tested on: Respiratory syncytial virus (RSV) type A, strain A2 (ATCC VR-1540); assay: dNHBE assay: RSV virus yield reduction (EC90); conditions: RSV (A2) in dNHBE cells, concentration reducing virus yield by 1 log10, mean of at least two experiments
Description: (§1) Differentiated normal human bronchial epithelial (dNHBE) cells were grown on 6 mm mesh disks in transwell inserts to approximately 1.2×10^6 cells/disk and disks were transferred to individual wells of a 6-well plate. 1 mL of proprietary culture medium was added to the basolateral side of the cells and the apical side was exposed to a humidified 95% air/5% CO2 environment. Cells were cultured at 37° C. for one day and then the mucin layer was removed from the apical side of the cells by repeated (3×) washing with 500 μL 30 mM HEPES buffered saline solution and culture medium on the basal side was replenished.
Respiratory syncytial virus (RSV) type A, strain A2 (ATCC VR-1540), previously passaged in MA-104 cells to make working stock cultures, was diluted 1/10 in medium before infection, using a multiplicity of infection (MOI) of ≤0.03 CCID50 per cell.
(§2) Various concentrations of test compounds in medium were applied in duplicate to the apical (140 μL) and basal sides (1 mL) for a 1 hour pre-treatment, followed by addition of 140 μL of virus inoculum to each cell insert on the apical side. The viral inoculum and treatments were removed after 2 hours. Control cells were treated with placebo (culture medium only). Following infection, the apical medium was removed and the basal side was replaced with fresh compound in medium. The cells were maintained at the air-liquid interface, and cell culture medium on the basal side was replaced daily with fresh medium containing test compound. After 4 days, the liquid was removed from the basal side and discarded and virus released into the apical compartment was harvested by the addition of 500 μL of culture medium. The medium was thoroughly mixed, then removed, diluted 1:1 with 40% sucrose and stored at ≤−80° C.
To determine the virus titer from each treated cell culture, MA-104 cells were seeded in 96-well plates and grown overnight (37° C.) to confluence. Samples containing virus were diluted in 10-fold increments in infection medium and 200 μL of each dilution transferred into respective wells of a 96-well microtiter plate. Four microwells were used for each dilution to determine 50% viral endpoints. After 7 days of incubation, each well was scored positive for virus if any cytopathic effect was observed as compared with the uninfected control. The virus dose that was able to infect 50% of the cell cultures (CCID50 per 0.1 mL) was calculated by the Reed-Muench method. This was repeated in duplicate for each test sample, so that values reported are an average of 2 independent CCID5o determinations. Untreated, uninfected cell controls were tested as negative controls. Statistical differences in the titers were evaluated with a one-way analysis of variance (ANOVA) followed by Dunnett's multiple comparisons test compared with the untreated virus controls.
(§3) Concentrations of test compounds that reduced virus yield by 1 log10 (90% effective concentration; EC90) were calculated by regression analysis. The reported EC90 value is the mean of at least two experiments. Potential toxicity of the test compounds was evaluated microscopically.

[3] = tested on: Differentiated normal human bronchial epithelial (dNHBE) cells; assay: dNHBE assay: toxicity evaluated microscopically; set-up: unit not given here
Description: as §1, §2, §3

[4] = tested on: human bone marrow progenitor cells (BFU-E); assay: Human bone marrow progenitor cell assay, BFU-E; conditions: BFU-E-specific culture, 14-day incubation, colony counts, read-out: Bone Marrow Stem Cell IC50 BFU-E
Description: (§4) Select compounds were tested in an in vitro selectivity study with human bone marrow progenitor cells. Fresh human bone marrow progenitor cells (Invitrogen) suspended in either BFU-E or GM-CSF-specific culture medium were added, at 10^5 cells/well, to triplicate serial dilutions of TA in 6-well plates. After 14-day incubations, colony counts were used to determine […] values. BFU-E colonies were confirmed using the benzidene technique. No cytotoxicity was observed from any of the tested compounds.

[5] = tested on: human bone marrow progenitor cells (CFU-GM); assay: Human bone marrow progenitor cell assay, CFU-GM (GM-CSF-specific culture); conditions: 14-day incubation, colony counts, read-out: Bone Marrow Stem Cell IC50 CFU-GM
Description: as §4

iPS cardiomyocytes = assay: iPS cardiomyocyte assay (XTT viability); conditions: 72 h, 3 days incubation, XTT staining
Description: Select compounds were tested in an in vitro selectivity study with iPS cardiomyocytes. iPS cardiomyocytes (Cellular Dynamics) were seeded in microliter plates at 1.5×10^4 cells per well. After 48-hr incubation, cells were washed and maintenance medium containing 30 serially diluted TA was added in triplicate. After incubating for an additional 3 days, cellviability was measured by staining with XTT and CC50 values were calculated. No cytotoxicity was observed from any of the tested compounds.

[6] = human respiratory syncytial virus

In the case of `CC(C)C(=O)Nc1nc(N(C)C)c2ncn([C@@H]3O[C@@](CO)(CCl)[C@@H](O)[C@H]3F)c2n1` [X], the EC50 [1] is reported as > 232 µM.

For `CNc1nc(F)nc2c1ncn2[C@@H]1O[C@](CCl)(CO[P@@](=O)(N[C@@H](C)C(=O)OC(C)C)Oc2ccccc2)[C@@H](O)[C@@H]1F` [AQ, (S)-Isopropyl 2-(((S)-(((2R,3R,4S,5R)-5-(6-(methylamino)-2-fluoro-9H-purin-9-yl)-2-(chloromethyl)-4-fluoro-3-hydroxytetrahydrofuran-2-yl)methoxy)(phenoxy)phosphoryl)amino) propanoate], the EC90 [2, 6] was 0.18 µM, the Visual toxicity [3] was >1.6 and the IC50 ([4]; Homo sapiens, 336 h) was > 100 µM. The IC50 ([5]; Homo sapiens, CFU-GM, 336 h) was > 100 µM and the IC50 (iPS cardiomyocytes) was > 100 µM.

Work on `Cc1cn([C@H]2C[C@H](N=[N+]=[N-])[C@@H](CO)O2)c(=O)[nH]c1=O` [AZT, reference compound] yielded an IC50 [4] of 2.59 µM and an IC50 [5] of 4.56 µM.

In the case of `CNc1nc(F)nc2c1ncn2[C@@H]1O[C@](C)(CO[P@@](=O)(N[C@@H](C)C(=O)OC(C)C)Oc2ccccc2)[C@@H](O)[C@H]1F` [AH, (S)-Isopropyl 2-(((S)-(((2R,3R,4R,5R)-5-(6-(methylamino)-2-fluoro-9H-purin-9-yl)-4-fluoro-3-hydroxy-2-methyltetrahydrofuran-2-yl)methoxy)(phenoxy)phosphoryl)amino) propanoate], the EC90 [2, 6] is reported as 0.12 µM, the Visual toxicity [3] is reported as >1.7 and the IC50 ([4]; Homo sapiens, 336 h) is reported as > 100 µM. For the same molecule, the IC50 ([5]; Homo sapiens, CFU-GM, 336 h) was > 100 µM and the IC50 (iPS cardiomyocytes) was > 100 µM.

With `CC(C)OC(=O)[C@H](C)NP(=O)(OC[C@@]1(CCl)O[C@@H](n2cnc3c(N(C)C)nc(N)nc32)[C@H](F)[C@@H]1O)Oc1ccccc1` (stereo partly drawn) [Compound L, (2S)-Isopropyl 2-(((((2R,3R,4R,5R)-5-(2-amino-6-(dimethylamino)-9H-purin-9-yl)-2-(chloromethyl)-4-fluoro-3-hydroxytetrahydrofuran-2-yl)methoxy)(phenoxy)phosphoryl)amino)propanoate] the EC90 [2, 6] was 13.5 µM, the Visual toxicity [3] was 158 and the EC50 [1] was > 159 µM.

In the case of `CNc1nc(N)nc2c1ncn2[C@@H]1O[C@](C)(CO[P@@](=O)(N[C@@H](C)C(=O)OC(C)C)Oc2ccccc2)[C@@H](O)[C@H]1F` [Compound AB, (S)-Isopropyl 2-(((S)-(((2R,3R,4R,5R)-5-(2-amino-6-(methylamino)-9H-purin-9-yl)-4-fluoro-3-hydroxy-2-methyltetrahydrofuran-2-yl)methoxy)(phenoxy)phosphoryl)amino) propanoate], the EC90 [2] is reported as 0.052 µM, the Visual toxicity [3] is reported as >17 and the IC50 ([4]; Homo sapiens, 336 h) is reported as > 100 µM. The IC50 ([5]; Homo sapiens, CFU-GM, 336 h) was > 100 µM and the IC50 (iPS cardiomyocytes) was > 100 µM.

For `CN(C)c1nc(N)nc2c1ncn2[C@@H]1O[C@@](CO)(CCl)[C@@H](O)[C@H]1F` [Compound K, (2R,3R,4R,5R)-5-(2-Amino-6-(dimethylamino)-9H-purin-9-yl)-2-(chloromethyl)-4-fluoro-2-(hydroxymethyl)tetrahydrofuran-3-ol], the EC90 [2, 6] was 74.8 µM, the Visual toxicity [3] was >277 and the EC50 [1] was > 225 µM.

With `CC(C)OC(=O)[C@H](C)NP(=O)(OC[C@@]1(CCl)O[C@@H](n2cnc3c(N(C)C)nc(NC(=O)C(C)C)nc32)[C@H](F)[C@@H]1O)Oc1ccccc1` (stereo partly drawn) [Y] the EC50 [1] was > 142 µM.

With `CC[C@]1(COP(=O)(N[C@@H](C)C(=O)OC(C)C)Oc2ccccc2)O[C@@H](n2cnc3c(N(C)C)nc(N)nc32)[C@@H](F)[C@@H]1O` (stereo partly drawn) [Compound V, (2S)-Isopropyl 2-(((((2R,3R,4S,5R)-5-(2-amino-6-(dimethylamino)-9H-purin-9-yl)-2-ethyl-4-fluoro-3-hydroxytetrahydrofuran-2-yl)methoxy)(phenoxy)phosphoryl)-amino) propanoate] the EC90 [2, 6] was 44.8 µM, the Visual toxicity [3] was 164 and the EC50 [1] was > 164 µM.

For `COc1cc2nc(N3CCN(C(=O)C4COc5ccccc5O4)CC3)nc(N)c2cc1OC` (stereo not drawn) [Doxazosin, reference compound], the IC50 (iPS cardiomyocytes) was 12.5 µM.

For `CN(C)c1nc(N)nc2c1ncn2[C@@H]1O[C@](C)(CO)[C@@H](O)[C@H]1F` [A, (2R,3R,4R,5R)-5-(2-Amino-6-(dimethylamino)-9H-purin-9-yl)-4-fluoro-2-(hydroxymethyl)-2-methyltetrahydrofuran-3-ol], the EC90 [2, 6] was 142 µM, the Visual toxicity [3] was >306 and the EC50 [1] was > 306 µM.

`CC(C)OC(=O)[C@H](C)NP(=O)(OC[C@@]1(C)O[C@@H](n2cnc3c(N(C)C)nc(N)nc32)[C@H](F)[C@@H]1O)Oc1ccccc1` (stereo partly drawn) [B, (2S)-Isopropyl 2-(((((2R,3R,4R,5R)-5-(2-amino-6-(dimethylamino)-9H-purin-9-yl)-4-fluoro-3-hydroxy-2-methyltetrahydrofuran-2-yl)methoxy)(phenoxy)phosphoryl)-amino) propanoate] was tested, and the EC90 [2, 6] was 5.9 µM, the Visual toxicity [3] was >167 and the EC50 [1] was < 168 µM.

For `CC[C@]1(CO)O[C@@H](n2cnc3c(N(C)C)nc(N)nc32)[C@@H](F)[C@@H]1O` [Compound U, (2R,3R,4S,5R)-5-(2-Amino-6-(dimethylamino)-9H-purin-9-yl)-2-ethyl-4-fluoro-2-(hydroxymethyl)tetrahydrofuran-3-ol], the EC90 [2, 6] was > 294 µM, the Visual toxicity [3] was >294 and the EC50 [1] was > 294 µM.

For `CC(C)OC(=O)[C@H](C)NP(=O)(OC[C@@]1(CCl)O[C@@H](n2ccc(N)nc2=O)[C@H](F)C1O)Oc1ccccc1` (stereo in doubt) [Z], the EC90 [2, 6] was 2 µM, the Visual toxicity [3] was >177 and the EC50 [1] was > 177 µM.

For `CN(C)c1nc(N)nc2c1ncn2[C@@H]1O[C@](C)(CO)[C@@H](O)[C@@H]1F` [Compound S], the EC90 [2, 6] was > 300 µM, the Visual toxicity [3] was >307 and the EC50 [1] was > 306 µM.

For `CC(C)OC(=O)[C@H](C)N[P@](=O)(OC[C@@]1(C)O[C@@H](n2cnc3c(N(C)C4CC4)nc(N)nc32)[C@H](F)[C@@H]1O)Oc1ccccc1` [AS, (S)-Isopropyl 2-(((S)-(((2R,3R,4R,5R)-5-(2-amino-6-(cyclopropyl(methyl)amino)-9H-purin-9-yl)-4-fluoro-3-hydroxy-2-methyltetrahydrofuran-2-yl)methoxy)(phenoxy)phosphoryl)amino) propanoate], the EC90 [2, 6] was 1.5 µM and the Visual toxicity [3] was >1.6.

With `COc1nc(N(C)C)c2ncn([C@@H]3O[C@](C)(CO[P@@](=O)(N[C@@H](C)C(=O)OC(C)C)Oc4ccccc4)[C@@H](O)[C@H]3F)c2n1` [AF, (S)-Isopropyl 2-(((S)-(((2R,3R,4R,5R)-5-(6-(dimethylamino)-2-methoxy-9H-purin-9-yl)-4-fluoro-3-hydroxy-2-methyltetrahydrofuran-2-yl)methoxy)(phenoxy)phosphoryl)amino) propanoate] the EC90 [2, 6] was 0.18 µM and the Visual toxicity [3] was >16.
